Test results reported in patent US11667631B2, “FGFR4 inhibitor, preparation method therefor, and applications thereof” (Jiangsu Hansoh Pharmaceutical Group Co., Ltd., priority 2016, dated 2023).
pIC50: −log10 of the molar value. Like-named read-outs stand apart in the source and are kept apart here.

Columns and labels:
FGFR1 kinase = FGFR1 kinase (Homo sapiens (Human), UniProt P11362); test: Enzymologic experiment of FGFR1 (TR-FRET); type: biochemical; conditions: FGFR1 kinase activity
Procedure: In this experiment, the inhibitory effect of the compounds on FGFR1 kinase activity was tested by a fluorescence resonance energy transfer (TR-FRET) method, and the half maximal inhibitory concentration (IC50) of the compounds on the FGFR1 kinase activity was determined.
1) 1˜5 μL of FGFR1 enzyme solution was added to a 384-well plate, and the final concentration of the enzyme was 0.1˜5 nM.
(§1) 2) 1˜5 μL of diluted solution in gradient of the compound was added.
(§2) 3) 1˜5 μL of a substrate mixture containing substrate polypeptide with a final concentration of 5˜50 nM and ATP with a final concentration of 10˜200 μM was added.
(§3) 4) The mixture was incubated for 0.5˜3 hours at room temperature.
(§4) 5) 10 μL of EDTA and a test solution comprising labeled antibody were added, and the plate was incubated for 1 hour at room temperature.
6) The fluorescence signal values of each plate were determined by a microplate reader at 665 nm.
(§5) 7) The inhibition rates were calculated according to the fluorescence signal values.
8) The IC50 of the compound was obtained by curve fitting according to the inhibition rates at different concentrations, and the enzymatic activity of the specific example compounds is shown in Table 1.

FGFR4 kinase = FGFR4 kinase (Homo sapiens (Human), UniProt P22455); test: Enzymologic experiment of FGFR4 (TR-FRET); type: biochemical; conditions: FGFR4 kinase activity
Procedure: In this experiment, the inhibitory effect of the compounds on FGFR4 kinase activity was tested by a fluorescence resonance energy transfer (TR-FRET) method, and the half maximal inhibitory concentration (IC50) of the compounds on the FGFR4 kinase activity was determined.
as §1, §2, §3, §4, §5

HuH-7 cells = test: Inhibition of HuH-7 cell proliferation (CellTiter-Glo); type: cell-based; conditions: Homo sapiens, read-out: HuH-7 IC50
Procedure: In this experiment, the inhibitory effect of the compounds on HuH-7 cell proliferation was tested by a CellTiter-Glo method, and the half maximal inhibitory concentration (IC50) of the compounds on the activity of cell proliferation was determined.
1) A 96-well cell culture plate was seeded with 50˜100 μL of HuH-7 cell suspension at a density of 1˜5×10^4 cells/ml. The culture plate was incubated in an incubator for 16˜24 hours (37° C., 5% CO2).
(§6) 2) Different concentrations of the test compound in a gradient dilution were added to the cells in the culture plate. The culture plate was incubated in an incubator for 72 hours (37° C., 5% CO2).
3) 50˜100 μL of CellTiter-Glo reagent was added to each well. Then, the culture plate was shaken or left to stand for 5˜30 minutes at room temperature.
(§7) 4) The chemiluminescence signal values of each plate were determined by a microplate reader.
(§8) 5) The inhibition rates were calculated according to the chemiluminescence signal values.
(§9) 6) The IC50 of the compound was obtained by curve fitting according to the inhibition rates at different concentrations, and the cell activity of the specific example compounds is shown in Table 2.

SK-HEP-1 cells = test: Inhibition of SK-HEP-1 cell proliferation (CellTiter-Glo); type: cell-based; conditions: Homo sapiens, read-out: SK-HEP-1 IC50
Procedure: In this experiment, the inhibitory effect of the compounds on SK-HEP-1 cell proliferation was tested by a CellTiter-Glo method, and the half maximal inhibitory concentration (IC50) of the compounds on the activity of cell proliferation was determined.
1) A 96-well cell culture plate was seeded with 50˜100 μL of SK-HEP-1 cell suspension at a density of 1˜5×10^4 cells/ml. The culture plate was incubated in an incubator for 16˜24 hours (37° C., 5% CO2).
as §6
(§10) 3) 50˜100 μL of CellTiter-Glo reagent were added to each well. Then, the culture plate was shaken or left to stand for 5˜30 minutes at room temperature.
as §7, §8, §9

Hep 3B cells = test: Inhibition of Hep 3B cell proliferation (CellTiter-Glo); type: cell-based; conditions: Homo sapiens, Hep3B
Procedure: In this experiment, the inhibitory effect of the compounds on Hep 3B cell proliferation was tested by a CellTiter-Glo method, and the half maximal inhibitory concentration (IC50) of the compounds on the activity of cell proliferation was determined.
1) A 96-well cell culture plate was seeded with 50˜100 μL of Hep 3B cell suspension at a density of 1˜5×10^4 cells/ml. The culture plate was incubated in an incubator for 16˜24 hours (37° C., 5% CO2).
as §6, §10, §7, §8

[1] = Pharmacokinetic (PK) analysis in rats; type: in vivo, Sprague Dawley (SD) rats; conditions: SD rats, single intragastric administration, 5 mg/kg
Procedure: 1) 0.2 ml of intravenous blood was collected and placed in a K2EDTA test tube. The blood was centrifuged at room temperature at the speed of 1000˜3000×g for 5˜20 minutes to isolate the plasma, which was then stored at −80° C.
2) 160 μL of acetonitrile was added to 40 μL of plasma sample for precipitation, and then the mixture was centrifuged at the speed of 500˜2000×g for 5˜20 minutes.
3) 100 μL of treated solution was taken, and the concentration of the test compound was analyzed by LC/MS/MS. The LC/MS/MS analytical instrument was AB Sciex API 4000. • Liquid chromatography analysis: • Condition of Liquid chromatography: Shimadzu LC-20AD pump • Chromatographic column: phenomenex Gemiu 5 um C18 50×4.6 mm • Mobile phase: Solution A is 0.1% formic acid aqueous solution, and Solution B is acetonitrile • Flow rate: 0.8 mL/min • Elution time: 0-3.5 minutes, the eluent was used as follows: […]

[2] = HuH-7 cell proliferation, 72 hours, CellTiter-Glo
[3] = SK-HEP1, SK-HEP-1 cell proliferation, 72 hours, CellTiter-Glo
[4] = Hep 3B cell proliferation, 72 hours, CellTiter-Glo, read-out: Hep 3B IC50

Chain of FGFR4 kinase (P22455 22-802): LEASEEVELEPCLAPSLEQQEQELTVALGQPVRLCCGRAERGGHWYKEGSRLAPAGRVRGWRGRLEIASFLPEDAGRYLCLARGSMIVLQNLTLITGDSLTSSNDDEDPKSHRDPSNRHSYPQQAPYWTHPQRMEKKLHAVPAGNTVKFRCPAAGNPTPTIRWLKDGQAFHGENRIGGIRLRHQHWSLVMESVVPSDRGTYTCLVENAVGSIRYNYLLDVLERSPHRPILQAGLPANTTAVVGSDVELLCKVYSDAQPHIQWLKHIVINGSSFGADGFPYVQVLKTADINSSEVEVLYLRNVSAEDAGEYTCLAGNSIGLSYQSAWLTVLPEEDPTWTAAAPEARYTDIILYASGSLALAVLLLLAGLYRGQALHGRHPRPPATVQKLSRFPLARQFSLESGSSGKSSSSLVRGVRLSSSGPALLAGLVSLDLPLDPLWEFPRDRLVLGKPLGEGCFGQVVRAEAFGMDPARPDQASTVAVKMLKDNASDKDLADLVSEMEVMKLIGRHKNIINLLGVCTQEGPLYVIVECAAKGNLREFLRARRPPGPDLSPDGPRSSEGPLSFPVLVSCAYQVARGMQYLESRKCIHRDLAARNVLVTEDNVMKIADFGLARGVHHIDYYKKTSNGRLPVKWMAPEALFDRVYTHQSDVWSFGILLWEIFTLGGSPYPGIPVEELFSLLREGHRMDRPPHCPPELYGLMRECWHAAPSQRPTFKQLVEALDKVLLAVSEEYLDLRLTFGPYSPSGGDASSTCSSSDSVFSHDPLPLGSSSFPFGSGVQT
Chain of FGFR1 kinase (P11362 22-822): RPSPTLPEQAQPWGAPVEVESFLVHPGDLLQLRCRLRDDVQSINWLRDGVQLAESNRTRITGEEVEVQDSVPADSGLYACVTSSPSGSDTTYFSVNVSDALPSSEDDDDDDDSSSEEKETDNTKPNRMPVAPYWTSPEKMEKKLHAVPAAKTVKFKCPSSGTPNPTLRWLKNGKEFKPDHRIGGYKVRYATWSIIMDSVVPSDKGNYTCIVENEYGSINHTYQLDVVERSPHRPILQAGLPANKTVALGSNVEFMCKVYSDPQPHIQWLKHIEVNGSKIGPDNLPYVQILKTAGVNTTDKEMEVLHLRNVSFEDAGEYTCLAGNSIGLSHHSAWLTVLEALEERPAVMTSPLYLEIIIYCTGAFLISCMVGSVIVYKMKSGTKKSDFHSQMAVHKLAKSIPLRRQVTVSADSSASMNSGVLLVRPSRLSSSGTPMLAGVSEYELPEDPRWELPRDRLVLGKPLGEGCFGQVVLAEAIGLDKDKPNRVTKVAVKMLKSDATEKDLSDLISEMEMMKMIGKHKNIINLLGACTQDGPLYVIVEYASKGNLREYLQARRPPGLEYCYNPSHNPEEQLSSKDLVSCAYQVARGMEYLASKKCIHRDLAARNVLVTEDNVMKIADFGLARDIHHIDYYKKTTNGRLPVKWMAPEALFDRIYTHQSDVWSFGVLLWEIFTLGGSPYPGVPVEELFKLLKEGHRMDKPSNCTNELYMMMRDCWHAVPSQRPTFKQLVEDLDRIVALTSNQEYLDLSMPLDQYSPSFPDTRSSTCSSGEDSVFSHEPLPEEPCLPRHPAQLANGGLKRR

Row | Compound | pIC50 (FGFR1 kinase) | pIC50 (FGFR4 kinase) | pIC50 (HuH-7 cells; [2]) | pIC50 (SK-HEP-1 cells; [3]) | pIC50 (Hep 3B cells; [4]) | Peak Time tmax ([1]; (sampling in hours)) [h] | AUC(0-t) ([1]; Sprague-Dawley, rat, plasma, po, read-out: Area Under Curve AUC0-t) [ng·h/mL] | AUC(0-inf) ([1]; Sprague-Dawley, rat, plasma, po, read-out: Area Under Curve AUC0-∞) [ng·h/mL] | half-life ([1]; Sprague-Dawley, rat, plasma, po, read-out: Half-Time t1/2 (converted)) [h] | MRT ([1]; Sprague-Dawley, rat, plasma, po, read-out: Mean Residence Time MRT) [h] | Cmax ([1]; Sprague-Dawley, rat, plasma, po, read-out: Plasma Concentration Cmax) [ng/mL] | pIC50 (HuH-7 cells; Huh-7, 72 h) | pIC50 (SK-HEP-1 cells; SK-HEP1, 72 h) | pIC50 (Hep 3B cells; 72 h, read-out: Hep 3B IC50, Hep 3B cell proliferation, 72 hours, CellTiter-Glo)
1 | N#Cc1cnc(NC(=O)N2CCCc3cc(CN4CCCCOC4=O)c(C=O)nc32)cc1S[C@H]1CCOC1 [Example 36] | < 5.00 | 8.37 | 7.69 | < 5.00 | 8.10 | – | – | – | – | – | – | – | – | –
2 | CO[C@@H]1COCC1Nc1cc(NC(=O)N2CCCc3cc(CN4CCCCOC4=O)c(C=O)nc32)ncc1C#N (stereo partly drawn) [Example 37, N-(5-Cyano-4-(((trans)-4-methoxytetrahydrofuran-3-yl)amino)pyridin-2-yl)-7-formyl-6-((2-carbonyl-1,3-oxazepin-3-yl)methyl)-3,4-dihydro-1,8-naphthyridin-1(2H) -carboxamide] | < 5.00 | 8.95 | 8.39 | < 5.00 | 8.55 | – | – | – | – | – | – | – | – | –
3 | COCCNc1cc(NC(=O)N2CCCc3cc(CN4C(=O)OCC45CC5)c(C=O)nc32)ncc1C#N [Example 43, N-(5-Cyano-4-((2-methoxyethyl)amino)pyridin-2-yl)-7-formyl-6-((5-carbonyl-6-oxa-4-azaspiro[2.4]heptan-4-yl)methyl)-3,4-dihydro-1,8-naphthyridin-1(2H)-carboxamide] | < 5.00 | 8.36 | 8.09 | < 5.00 | 8.09 | – | – | – | – | – | – | – | – | –
4 | CO[C@H]1CCC1Oc1cc(NC(=O)N2CCCc3cc(CN4CCOCC4=O)c(C=O)nc32)ncc1C#N (stereo partly drawn) [Example 62, N-(5-Cyano-4-cis-((1,2)-2-methoxycyclobutoxy)pyridin-2-yl)-7-formyl-6-((3-carbonylmorpholino)methyl)-3,4-dihydro-1,8-naphthyridin-1(2H)-carboxamide] | < 5.00 | – | – | – | – | 2 | 4020 | 4060 | 0.85 | 2.98 | 2810 | 8.38 | < 5.00 | 8.47

Further lines, with some results ahead:

Row | pIC50 (FGFR1 kinase) | pIC50 (FGFR4 kinase) | pIC50 (HuH-7 cells; [2]) | pIC50 (SK-HEP-1 cells; [3]) | Compound | pIC50 (Hep 3B cells; [4]) | Peak Time tmax ([1]; (sampling in hours)) [h] | AUC(0-t) ([1]; Sprague-Dawley, rat, plasma, po, read-out: Area Under Curve AUC0-t) [ng·h/mL] | AUC(0-inf) ([1]; Sprague-Dawley, rat, plasma, po, read-out: Area Under Curve AUC0-∞) [ng·h/mL] | half-life ([1]; Sprague-Dawley, rat, plasma, po, read-out: Half-Time t1/2 (converted)) [h] | MRT ([1]; Sprague-Dawley, rat, plasma, po, read-out: Mean Residence Time MRT) [h] | Cmax ([1]; Sprague-Dawley, rat, plasma, po, read-out: Plasma Concentration Cmax) [ng/mL] | pIC50 (HuH-7 cells; Huh-7, 72 h) | pIC50 (SK-HEP-1 cells; SK-HEP1, 72 h) | pIC50 (Hep 3B cells; 72 h, read-out: Hep 3B IC50, Hep 3B cell proliferation, 72 hours, CellTiter-Glo)
5 | < 5.00 | 8.54 | – | – | N#Cc1cnc(NC(=O)N2CCCc3cc(CN4CCOCC4=O)c(C=O)nc32)cc1NCCN1CCCC1 [Example 2, N-(5-Cyano-4-((2-(pyrrolidin-1-yl)ethyl)amino)pyridin-2-yl)-7-formyl-6-((3-carbonylmorpholino)methyl)-3,4-dihydro-1,8-naphthyridin-1(2H)-carboxamide] | – | – | – | – | – | – | – | – | – | –
6 | < 5.00 | 8.27 | 7.39 | < 5.00 | CC1OCCC1Sc1cc(NC(=O)N2CCCc3cc(CN4CCOCC4=O)c(C=O)nc32)ncc1C#N (centres unmarked) [Example 3, N-(5-Cyano-4-((2-methyltetrahydrofuran-3-yl)thio)pyridin-2-yl)-7-formyl-6-((3-carbonylmorpholino)methyl)-3,4-dihydro-1,8-naphthyridin-1(2H)-carboxamide] | 7.88 | – | – | – | – | – | – | – | – | –
7 | < 5.00 | 9.22 | 7.99 | < 5.00 | COCCNc1cc(NC(=O)N2CCCc3cc(CN4CCCN(C)CC4=O)c(C=O)nc32)ncc1C#N [Example 7, N-(5-Cyano-4-((2-methoxyethyl)amino)pyridin-2-yl)-7-formyl-6-((4-methyl-2-carbonyl-1,4-diazoheptyl-1-yl)methyl)-3,4-dihydro-1,8-naphthyridin-1(2H)-carboxamide] | 8.85 | – | – | – | – | – | – | – | – | –
8 | < 5.00 | 8.77 | 7.87 | < 5.00 | COCCNc1cc(NC(=O)N2CCCc3cc(CN4C(=O)COCC45CC5)c(C=O)nc32)ncc1C#N [Example 21, N-(5-Cyano-4-((2-methoxyethyl)amino)pyridin-2-yl)-7-formyl-6-((5-carbonyl-7-oxa-4-azaspiro[2.5]octane-4-yl)methyl)-3,4-dihydro-1,8-naphthyridin-1(2H)-carboxamide] | 8.07 | – | – | – | – | – | – | – | – | –
9 | < 5.00 | 8.60 | 7.87 | < 5.00 | COC[C@H](C)Nc1cc(NC(=O)N2CCCc3cc(CN4CCCCOC4=O)c(C=O)nc32)ncc1C#N [Example 30] | 8.34 | – | – | – | – | – | – | – | – | –
